Measured values as given in patent US4368198A, “Cephalosporins” (Sumitomo Chemical Company Limited, priority 1976, dated 1983).
≈ marks a conversion by molar mass, not a printed value. Like-named read-outs stand apart in the source and are kept apart here.

Experiments:
Assay type in all cases: cell-based
Escherichia coli NIHJ = experiment: antimicrobial activities in in vitro testing (MIC), Escherichia coli NIHJ
[1] = tested on: Staphylococcus aureus 209P; experiment: antimicrobial activities in in vitro testing (MIC), Staphylococcus aureus 209P
Text: (§1) The results of the antimicrobial activities of these compounds in in vitro testing in accordance with the recognized method are set forth in the Table below.

Proteus vulgaris HX 19 = experiment: antimicrobial activities in in vitro testing (MIC), Proteus vulgaris HX 19; details: HX19, read-out: Minimum Inhibitory Concentration
Text: as §1

[2] = tested on: Klebsiella pneumoniae 602; experiment: antimicrobial activities in in vitro testing (MIC), Klebsiella pneumoniae 602
[3] = tested on: Staphylococcus aureus FS 289; experiment: antimicrobial activities in in vitro testing (MIC), Staphylococcus aureus FS 289; details: FS289, read-out: Minimum Inhibitory Concentration
Text: as §1

[4] = tested on: Pseudomonas aeruginosa 104; experiment: antimicrobial activities in in vitro testing (MIC), Pseudomonas aeruginosa 104
Text: as §1

[5] = in vitro, read-out: Minimum Inhibitory Concentration
[6] = Staphylococcus aureus 209P, in vitro, read-out: Minimum Inhibitory Concentration
[7] = read-out: antimicrobial activities
[8] = Staphylococcus aureus 209 P, read-out: antimicrobial activities

SMILES | MIC (Escherichia coli NIHJ; [5]) [µg/mL] | MIC [1, 6] [µg/mL] | MIC (Proteus vulgaris HX 19) [µg/mL] | MIC [2, 5] [µg/mL] | MIC [3] [µg/mL] | MIC [4, 5] [µg/mL] | MIC (Escherichia coli NIHJ; [7]) [µg/mL] | MIC [1, 8] [µg/mL] | MIC [2, 7] [µg/mL] | MIC [4, 7] [µg/mL]
NC(=O)OCC1=C(C(=O)O)N2C(=O)C(NC(=O)[C@H](NC(=O)c3cnccc3O)c3cccc(N)c3)[C@H]2SC1 (stereo partly drawn) [Example 5, 7-[D-α-(4-Hydroxypyridine-3-carboxamido)-α-(m-aminophenyl)acetamido]-3-carbamoyloxymethyl-3-cephem-4-carboxylic acid] | 6.25 (≈ 11.5 µM) | 0.39 (≈ 0.719 µM) | 0.2 (≈ 0.369 µM) | 12.5 (≈ 23 µM) | 3.13 (≈ 5.77 µM) | 6.25 (≈ 11.5 µM) |  |  |  | 
NC(=O)OCC1=C(C(=O)O)N2C(=O)C(NC(=O)[C@H](NC(=O)c3cnccc3O)c3ccccc3)[C@H]2SC1 (stereo partly drawn) [Example 6, 7-[D-α-(4-Hydroxypyridine-3-carboxamido)-α-phenylacetamido]-3-carbamoyloxymethyl-3-cephem-4-carboxylic acid] | 12.5 (≈ 23.7 µM) | 0.39 (≈ 0.739 µM) | 0.2 (≈ 0.379 µM) | 12.5 (≈ 23.7 µM) | 3.13 (≈ 5.93 µM) | 12.5 (≈ 23.7 µM) |  |  |  | 
NC(=O)OCC1=C(C(=O)O)N2C(=O)C(NC(=O)[C@H](NC(=O)c3cnc4cccnc4c3O)c3ccc(O)cc3)[C@H]2SC1 (stereo partly drawn) [Example 7, 7-[D-α-(4-Hydroxy-1,5-naphthyridine-3-carboxamido)-α-(p-hydroxyphenyl)acetamido]-3-carbamoyloxymethyl-3-cephem-4-carboxylic acid] | 3.13 (≈ 5.26 µM) | 0.78 (≈ 1.31 µM) | 0.78 (≈ 1.31 µM) | 1.56 (≈ 2.62 µM) | 6.25 (≈ 10.5 µM) | 6.25 (≈ 10.5 µM) |  |  |  | 
NC(=O)OCC1=C(C(=O)O)N2C(=O)C(NC(=O)[C@H](NC(=O)c3cnc4cccnc4c3O)c3ccccc3)[C@H]2SC1 (stereo partly drawn) [Example 8, 7-[D-α-(4-Hydroxy-1,5-naphthyridine-3-carboxamido)-α-phenylacetamido]-3-carbamoyloxymethyl-3-cephem-4-carboxylic acid] | 3.13 (≈ 5.41 µM) | 0.78 (≈ 1.35 µM) | 0.78 (≈ 1.35 µM) | 1.56 (≈ 2.7 µM) | 6.25 (≈ 10.8 µM) | 6.25 (≈ 10.8 µM) |  |  |  | 
NC(=O)OCC1=C(C(=O)O)N2C(=O)C(NC(=O)[C@H](NC(=O)c3cnc4cccnc4c3O)c3cccc(N)c3)C2SC1 (some centres unmarked) [Example 9] | 1.56 (≈ 2.63 µM) | 0.78 (≈ 1.31 µM) | 0.78 (≈ 1.31 µM) | 1.56 (≈ 2.63 µM) | 3.13 (≈ 5.27 µM) | 6.25 (≈ 10.5 µM) |  |  |  | 
NC(=O)OCC1=C(C(=O)O)N2C(=O)C(NC(=O)[C@H](NC(=O)c3cnc4cccnc4c3O)c3ccc(O)c(Cl)c3)C2SC1 (some centres unmarked) [Example 12] | 3.13 (≈ 4.98 µM) | 1.56 (≈ 2.48 µM) | 0.78 (≈ 1.24 µM) | 1.56 (≈ 2.48 µM) | 6.25 (≈ 9.94 µM) | 6.25 (≈ 9.94 µM) |  |  |  | 
O=C(O)Cc1nnc(SCC2=C(C(=O)O)N3C(=O)C(NC(=O)[C@H](NC(=O)c4cnc5cccnc5c4O)c4ccc(O)cc4)[C@H]3SC2)s1 (stereo partly drawn) [Example 13, 7-[D-α-(4-Hydroxy-1,5-naphthyridine-3-carboxamido)-α-p-hydroxyphenylacetamido]-3-(5-carboxymethyl-1,3,4-thiadiazol-2-ylthiomethyl)-3-cephem-4-carboxylic Acid] |  |  |  |  |  |  | 1.56 (≈ 2.2 µM) | 0.78 (≈ 1.1 µM) | 1.56 (≈ 2.2 µM) | 3.13 (≈ 4.41 µM)

Second part, the molecule after the results:

MIC (Escherichia coli NIHJ; [5]) [µg/mL] | MIC [1, 6] [µg/mL] | MIC (Proteus vulgaris HX 19) [µg/mL] | MIC [2, 5] [µg/mL] | MIC [3] [µg/mL] | MIC [4, 5] [µg/mL] | MIC (Escherichia coli NIHJ; [7]) [µg/mL] | MIC [1, 8] [µg/mL] | MIC [2, 7] [µg/mL] | MIC [4, 7] [µg/mL] | SMILES
12.5 (≈ 23 µM) | 0.39 (≈ 0.718 µM) | 0.2 (≈ 0.368 µM) | 12.5 (≈ 23 µM) | 3.13 (≈ 5.76 µM) | 6.25 (≈ 11.5 µM) |  |  |  |  | NC(=O)OCC1=C(C(=O)O)N2C(=O)C(NC(=O)[C@H](NC(=O)c3cnccc3O)c3ccc(O)cc3)[C@H]2SC1 (stereo partly drawn) [Example 4, 7-[D-α-(4-Hydroxypyridine-3-carboxamido)-α-p-hydroxyphenylacetamido]-3-carbamoyloxymethyl-3-cephem-4-carboxylic Acid]
6.25 (≈ 9.74 µM) | 0.78 (≈ 1.22 µM) | 1.56 (≈ 2.43 µM) | 6.25 (≈ 9.74 µM) | 3.13 (≈ 4.88 µM) | 6.25 (≈ 9.74 µM) |  |  |  |  | CSc1ncc2c(O)c(C(=O)N[C@@H](C(=O)NC3C(=O)N4C(C(=O)O)=C(COC(N)=O)CS[C@H]34)c3ccc(O)cc3)cnc2n1 (stereo partly drawn) [Example 10, 7-[D-α-(2-Methylthio-5,8-dihydro-5-oxopyrido[2,3-d]-pyrimidine-6-carboxamido)-α-(p-hydroxyphenyl)acetamido]-3-carbamoyloxymethyl-3-cephem-4-carboxylic acid]
6.25 (≈ 10.5 µM) | 1.56 (≈ 2.62 µM) | 1.56 (≈ 2.62 µM) | 6.25 (≈ 10.5 µM) | 6.25 (≈ 10.5 µM) | 12.5 (≈ 21 µM) |  |  |  |  | NC(=O)OCC1=C(C(=O)O)N2C(=O)C(NC(=O)[C@H](NC(=O)c3cnc4cncnc4c3O)c3ccc(O)cc3)C2SC1 (stereo partly drawn) [Example 11, 7-[D-α-(5,8-Dihydro-5H-8-oxopyrido[3,2-d]pyrimidine-7-carboxamido)-α-(p-hydroxyphenyl)acetamido]-3-carbamoyloxymethyl-3-cephem-4-carboxylic acid]
 |  |  |  |  |  | 1.56 (≈ 2.25 µM) | 0.78 (≈ 1.12 µM) | 1.56 (≈ 2.25 µM) | 3.13 (≈ 4.51 µM) | O=C(O)Cn1nnnc1SCC1=C(C(=O)O)N2C(=O)C(NC(=O)[C@H](NC(=O)c3cnc4cccnc4c3O)c3ccc(O)cc3)[C@H]2SC1 (stereo partly drawn) [Example 14, 7-[D-α-(4-Hydroxy-1,5-naphthyridine-3-carboxamido)-α-p-hydroxyphenylacetamido]-3-(1-carboxymethyl-1,2,3,4-tetrazol-5-ylthiomethyl)-3-cephem-4-carboxylic Acid]
